Test results reported in article PMC6168621 (Frontiers in Pharmacology, 2018).
Marks after values point to notes of the source that are not given here.

Key:
hCB1Rs [1] = biological target: T1, hCB1Rs (Homo sapiens, UniProt P21554); experiment: biochemical; conditions: read-out: EMAX, [^35S]GTPγS binding (maximal G-protein activation)
T1 construct: host or cells: CHO-K1 (CHO-hCB1)

hCB1Rs [2] = biological target: T1, hCB1Rs; experiment: cell-based; assay type: cell-based
hCB1Rs [3] = biological target: T1, hCB1Rs; assay type: cell-based

T1 sequence (P21554 whole entry): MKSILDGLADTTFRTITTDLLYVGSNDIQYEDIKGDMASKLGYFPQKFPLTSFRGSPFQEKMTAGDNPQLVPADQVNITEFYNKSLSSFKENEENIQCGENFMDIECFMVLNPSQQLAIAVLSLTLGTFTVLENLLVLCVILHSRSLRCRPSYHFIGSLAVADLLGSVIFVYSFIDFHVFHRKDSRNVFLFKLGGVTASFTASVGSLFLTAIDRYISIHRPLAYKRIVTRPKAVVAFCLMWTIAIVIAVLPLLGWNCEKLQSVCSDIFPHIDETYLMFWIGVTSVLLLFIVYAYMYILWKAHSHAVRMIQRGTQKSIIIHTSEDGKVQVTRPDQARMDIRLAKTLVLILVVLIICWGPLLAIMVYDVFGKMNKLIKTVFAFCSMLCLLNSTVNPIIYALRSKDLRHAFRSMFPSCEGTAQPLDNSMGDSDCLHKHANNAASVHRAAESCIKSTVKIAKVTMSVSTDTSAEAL

In the case of `CCCCCCC(C)(C)c1ccc([C@@H]2C[C@H](O)CC[C@H]2CCCO)c(O)c1` [CP-55,940, reference compound], the Emax (hCB1Rs [1]) is reported as 64 ± 3.8%, the “IMAX, cAMP accumulation (maximal adenylyl cyclase inhibition)” value (hCB1Rs [2]) is reported as 86.7 ± 6.4^a % and the “Efficacy (Imax) of CP-55,940 to inhibit adenylyl cyclase” value (hCB1Rs [3]) is reported as 86.7 ± 6.4%.
